{"source": "patent US20150259371A1", "about": "“METHODS AND COMPOUNDS FOR INHIBITING GLYCOSYLTRANSFERASES” (SIMON FRASER UNIVERSITY, priority 2010, published 2015)", "key": {"[1]": {"tested_on": "O-GlcNAc levels in CHO cells", "test": "Western blot of O-GlcNAc levels (CTD110.6) in treated CHO cells", "assay_type": "cell-based, Chinese hamster", "protocol": "Cell culture: Cells were grown in an incubator at 37° C. and 5% CO2 atmosphere. Media and serum were purchased from Invitrogen. COS-7 cells were cultured in Dulbecco's modified Eagle's medium (DMEM) with 5% fetal bovine serum (FBS), and were typically 80-100% confluent prior to experimentation. HepG2, SK-N-SH, and EMEG32^−/− cells were cultured in Dulbecco's modified Eagle's medium (DMEM) with 5% fetal bovine serum (FBS), CHO cells in DMEMF-12 with 5% FBS and PC12 cells in DMEM with 5% FBS and 5% horse serum. Prior to experimentation, PC12 cells were plated at a density of 3-4×10^5 cells10 cm plate, which had been pre-treated with 5 μgcm^2 rat tail collagen (BD Biosciences). Cells were differentiated in DMEM containing 1% horse serum, in the presence of 2.5S mouse nerve growth factor (Chemicon) at a final concentration of 25 ng mL^−1, for 4-5 days prior to treatment. Other cell lines were 80-100% confluent prior to treatment. […]\nAntibodieslectins: O-GlcNAc levels were assessed primarily using CTD110.6 (Covance), but RL2 (Abcam) and HGAC85 (Abcam) were also tested. […] OGA levels were assessed using a polyclonal anti-OGA antibody which was a kind gift from Dr. Gerald Hart and OGT levels using H-300 (Santa Cruz Biotechnology). nup62 was probed using mAb 414 (Covance). […]"}, "OGA": {"tested_on": "OGA", "test": "Western blot of OGA levels in treated COS-7 cells", "assay_type": "cell-based, African green monkey", "conditions": "50 μM, 24 h", "protocol": "(§1) Westernlectin blots: Samples were run on 10% SDS polyacrylamide gels and transferred onto nitrocellulose membranes (Biorad). Membranes were blocked for 1 h in PBS containing 0.1% Tween-20 (PBS-T) containing 1% (unless otherwise stated) bovine serum albumin (BSA), and probed with the appropriate primary antibody or lectin in 1% BSA in PBS-T overnight at 4° C. Blots were washed for 1 hr with PBS-T, and blocked for a further 30 min with 1% BSA in PBS-T at room temperature. They were then probed with the appropriate horseradish peroxidise (HRP)-conjugated secondary antibodyprobe in 1% BSA in PBS-T at room temperature for 1 h, followed by washing in PBS-T for 1 h. Blots were developed with SuperSignal West Pico Chemiluminescent Substrate (Pierce) and exposed to CL-XPosure film (Pierce). Densitometry was performed using ImageQuant 5.2 (Molecular Dynamics), and fits to the data were made using GRAFIT^41.\n(§2) Antibodieslectins: O-GlcNAc levels were assessed primarily using CTD110.6 (Covance), but RL2 (Abcam) and HGAC85 (Abcam) were also tested. Actin was probed using JLA20 (Developmental Studies Hybridoma Bank). OGA levels were assessed using a polyclonal anti-OGA antibody which was a kind gift from Dr. Gerald Hart and OGT levels using H-300 (Santa Cruz Biotechnology). nup62 was probed using mAb 414 (Covance). […]"}, "O-GlcNAc on nup62": {"tested_on": "O-GlcNAc on nup62", "test": "O-GlcNAc on nup62 immunoprecipitated from treated cells, chemoenzymatic labelling", "assay_type": "cell-based", "conditions": "250 μM, 24 h; streptavidin probe", "protocol": "Immunoprecipitation of nup62: nup62 was immunoprecipitated from COS-7 cell lysates using the procedure described in Ref.^9. Following washing of the beads, and prior to elution, nup62 was incubated in the absence or presence of BtGH84 (overexpressed and purified as described previously^43) shaking for 2 h at room temperature, which would allow O-GlcNAc levels on nup62 to be assessed. nup62 was subsequently eluted from the beads upon addition of SDS loading buffer and boiled for 10 min.\nClick-iT® kit for labelling O-GlcNAc residues: The ‘Click-iT® O-GlcNAc Enzymatic Labeling System’ was purchased from Invitrogen, and essentially the manufacturer's protocol was followed with some alterations. nup62 was immunoprecipitated and eluted from the beads in 1% SDS in 20 mM Hepes, pH 7.9, and boiled for 10 min; this was used as the substrate for the chemoenzymatic labeling using UDP-GalNAz and GalTl. Following the overnight reaction, biotinylated phosphine (in 20% DMF) was added at a final concentration of 50 μM and incubated at 37° C. for […]. The reaction was stopped by the addition of SDS-PAGE loading buffer, and the samples were boiled for 10 min. Samples were run on a gel and transferred. The same procedure as described for the western blots was used, starting from the second blocking step. Blots were then probed with HRP-conjugated streptavidin (Pierce). […]"}, "OGT": {"tested_on": "OGT", "test": "Western blot of OGT levels in treated COS-7 cells", "assay_type": "cell-based, African green monkey", "conditions": "50 μM, 24 h", "protocol": "as §1, §2"}}}
{"smiles": "CC(=O)NC1C(OC(C)=O)SC(COC(C)=O)C(OC(C)=O)C1OC(C)=O", "note": "[Compound 9, N-Acetyl-1,3,4,6-tetra-O-acetyl-α-D-5-thio-glucosamine]", "values": [{"measurement": "O-GlcNAc levels at last time point of growth curve", "setting": "[1]; 50 μM, 5 days", "result": "O-GlcNAc levels are still significantly decreased in cells treated with Ac-5SGlcNAc"}, {"measurement": "EC50", "setting": "[1]; Cricetulus griseus, 24 h, read-out: EC50 for reduction of O-GlcNAc levels", "result": 800, "unit": "nM"}, {"measurement": "OGA levels", "setting": "OGA", "result": "compensatory decrease in OGA levels"}, {"measurement": "O-GlcNAc modification of immunoprecipitated nup62", "setting": "O-GlcNAc on nup62", "result": "shows almost no modification"}, {"measurement": "OGT levels", "setting": "OGT", "result": "increase in OGT levels"}]}
